This series is described as follows: degradation kinetics of fluvastatin in aqueous solution at various pH. It counts as physicochemical.

Consider one compound from patent US20050239884A1, “Compositions comprising hmg-coa reductase inhibitor” (priority 2002, published 2005).

Where a name gives a salt, the structure may show the parent alone.

On to `CC(C)n1c(/C=C/C(O)CC(O)CC(=O)O)c(-c2ccc(F)cc2)c2ccccc21` (stereo not drawn) [fluvastatin, R*,S*-(E)-(±)-7-[3-(4-fluorophenyl)-1-(1-methyl-ethyl)-1H-indol-2-yl]-3,5-dihydroxy-6-heptenoic acid, sodium salt], for which the “% fluvastatin remaining at 37° C. after 1 hour” value (pH 1.0, 37° C.) was 10.9%; the “% fluvastatin remaining at 37° C. after 1 hour” value (pH 4.0, 37° C.) is reported as 86.7%; the “% fluvastatin remaining at 37° C. after 1 hour” value (pH 6.0, 37° C.) worked out at 99.6%; the “% fluvastatin remaining at 37° C. after 1 hour” value (pH 7.8, 37° C.) is listed as 98.3%. The “% fluvastatin remaining at 37° C. after 24 hrs” value is listed as 0% (pH 1.0, 37° C.); 25.2% (pH 4.0, 37° C.); 97.1% (pH 6.0, 37° C.); 98.0% (pH 7.8, 37° C.).
